Results published in patent publication US10508077B2 (FORMA Therapeutics, Inc., priority 2015, dated 2019).
pIC50: −log10 of the molar value. Where a name gives a salt, the structure may show the parent alone.

Key:
[1] = target: T1, Full length human recombinant HDAC8 protein (Homo sapiens, UniProt Q9BY41); test: In vitro histone deacetylase assay: enzymatic HDAC8 assay, electrophoretic mobility shift; type: biochemical; settings: substrate RHKK(Ac)-NH2, 1 nM enzyme, compounds listed under IC50 range headings
T1 construct: Full length human recombinant HDAC8 protein was expressed in baculoviral system; made in house
T1 sequence (Q9BY41 1-377): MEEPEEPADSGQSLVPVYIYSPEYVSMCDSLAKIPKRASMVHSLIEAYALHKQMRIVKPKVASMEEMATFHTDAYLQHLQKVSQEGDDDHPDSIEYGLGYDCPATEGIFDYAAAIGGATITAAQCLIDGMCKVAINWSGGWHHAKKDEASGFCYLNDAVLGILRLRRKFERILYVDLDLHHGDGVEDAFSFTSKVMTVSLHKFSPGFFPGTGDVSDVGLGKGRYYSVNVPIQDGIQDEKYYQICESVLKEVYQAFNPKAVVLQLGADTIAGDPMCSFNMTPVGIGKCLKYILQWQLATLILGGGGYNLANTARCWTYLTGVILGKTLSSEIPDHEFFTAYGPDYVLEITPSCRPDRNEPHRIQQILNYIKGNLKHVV
Method in brief: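 Baculovirus-expressed full-length human HDAC8 (1 nM) deacetylated 2 µM fluorescent RHKK(Ac)-NH2 peptide in pH 7.5 HEPES, 1% DMSO, at 25 °C, with 12 compound concentrations at 3× spacing. SDS-quenched; product and substrate resolved by microfluidic electrophoresis, P/(S+P) converted to percent inhibition, and IC50 obtained by 4-parameter fit.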

[2] = target: T2, Recombinant N-terminal GST tag full-length human HDAC8 (Homo sapiens, UniProt Q9BY41); test: HDAC8 probe binding assay, time resolved fluorescence (TRF); settings: fluorescein labeled pan-HDAC inhibitor probe, 16 hours incubation, compounds listed under IC50 range headings
T2 construct: Recombinant N-terminal GST tag full-length human HDAC8; purchased SignalChem H90-30G-1000; host or cells: Sf9 insect cells (baculovirus)
T2 sequence (Q9BY41 1-377): T1 sequence (Q9BY41 1-377)
Method in brief: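 TR-FRET probe displacement using GST-tagged full-length human HDAC8 (Sf9-expressed, 2.5 nM) with 1.5 nM fluorescein-labelled pan-HDAC inhibitor probe and anti-GST terbium, in HEPES pH 7.5 buffer with GSH, BGG, Triton X-100. Compounds 25 μM–1.3 nM, 10-point; 16 h at room temperature. IC50 from 4-parameter fit of % inhibition versus no-enzyme and DMSO controls.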

| Compound | pIC50 [1] | pIC50 [2] |
| --- | --- | --- |
| Cc1onc(-c2ccc(F)cc2)c1C(=O)Nc1ccccc1/C=C/C(=O)NO [Example I-323, (E)-3-(4-fluorophenyl)-N-(2-(3-(hydroxyamino)-3-oxoprop-1-en-1-yl)phenyl)-5-methylisoxazole-4-carboxamide] | > 6.00 | ≥ 6.00 |
| O=C(NO)/C(F)=C/c1ccccc1NC(=O)c1cccc(C(F)(F)F)c1 [Example I-324, (Z)—N-(2-(2-fluoro-3-(hydroxyamino)-3-oxoprop-1-en-1-yl)phenyl)-3-(trifluoromethyl)benzamide] | > 6.00 | ≥ 6.00 |
| O=C(NO)/C(F)=C/c1ccccc1NC(=O)c1ccccc1Oc1ccccc1 [Example I-325, (Z)—N-(2-(2-fluoro-3-(hydroxyamino)-3-oxoprop-1-enyl)phenyl)-2-phenoxybenzamide hydrochloride] | > 6.00 | ≥ 6.00 |
| CN1CCN(c2ccccc2/C=C/C(=O)NO)CC1 [Example I-326, (E)-N-hydroxy-3-(2-(4-methylpiperazin-1-yl)phenyl)acrylamide] | > 6.00 | ≥ 6.00 |
| O=C(/C=C/c1ccccc1N1CCN(S(=O)(=O)c2ccccc2)CC1=O)NO [Example I-526, (E)-N-hydroxy-3-(2-(2-oxo-4-(phenylsulfonyl)piperazin-1-yl)phenyl)acrylamide] | > 6.00 | ≥ 6.00 |
| O=C(/C=C/c1ccccc1N1CCN(S(=O)(=O)c2ccc(OC(F)(F)F)cc2)CC1=O)NO [Example I-527, (E)-N-hydroxy-3-(2-(2-oxo-4-((4-(trifluoromethoxy)phenyl)sulfonyl)piperazin-1-yl)phenyl)acrylamide] | > 6.00 | ≥ 6.00 |
| COc1ccc(NC(=O)N2CCN(c3ccccc3/C=C/C(=O)NO)C(=O)C2)cc1 [Example I-529, (E)-4-(2-(3-(hydroxyamino)-3-oxoprop-1-en-1-yl)phenyl)-N-(4-methoxyphenyl)-3-oxopiperazine-1-carboxamide] | > 6.00 | ≥ 6.00 |
| O=C(/C=C/c1ccccc1N1CCN(Cc2ccc(F)cc2)CC1=O)NO [Example I-530, (E)-3-(2-(4-(4-fluorobenzyl)-2-oxopiperazin-1-yl)phenyl)-N-hydroxyacrylamide] | > 6.00 | ≥ 6.00 |
| Cc1ccc(N2CCN(c3ccccc3/C=C/C(=O)NO)C(=O)C2)cc1 [Example I-533, (E)-N-hydroxy-3-(2-(2-oxo-4-(p-tolyl)piperazin-1-yl)phenyl)acrylamide] | > 6.00 | ≥ 6.00 |
| O=C(/C=C/c1ccccc1NC(=O)c1ccccc1Oc1ccc(Cl)cc1F)NO [Example I-534, (E)-2-(4-chloro-2-fluorophenoxy)-N-(2-(3-(hydroxyamino)-3-oxoprop-1-en-1-yl)phenyl)benzamide] | > 6.00 | ≥ 6.00 |
| Cc1ccc(Oc2ccccc2C(=O)Nc2ccccc2/C=C/C(=O)NO)cn1 [Example I-535, (E)-N-(2-(3-(hydroxyamino)-3-oxoprop-1-en-1-yl)phenyl)-2-((6-methylpyridin-3-yl)oxy)benzamide] | > 6.00 | ≥ 6.00 |
| O=C(/C=C/c1ccccc1NC(=O)c1cccc(Oc2ccccc2)c1)NO [Example I-536, (E)-N-(2-(3-(hydroxyamino)-3-oxoprop-1-en-1-yl)phenyl)-3-phenoxybenzamide] | > 6.00 | ≥ 6.00 |
| O=C(/C=C/c1ccccc1NC(=O)c1ncccc1Oc1ccccc1)NO [Example I-537, N-{2-[(1E)-2-(hydroxycarbamoyl)eth-1-en-1-yl]phenyl}-3-phenoxypyridine-2-carboxamide] | > 6.00 | ≥ 6.00 |
| CC(C)(C)OC(=O)N1CCCCC12CCN(c1ccccc1/C=C/C(=O)NO)CC2 [Example I-538, tert-butyl (E)-9-(2-(3-(hydroxyamino)-3-oxoprop-1-en-1-yl)phenyl)-1,9-diazaspiro[5.5]undecane-1-carboxylate] | > 6.00 | ≥ 6.00 |
| O=C(/C=C/c1ccccc1NC(=O)c1ncsc1Oc1ccccc1)NO [Example I-539, N-{2-[(1E)-2-(hydroxycarbamoyl)eth-1-en-1-yl]phenyl}-5-phenoxy-1,3-thiazole-4-carboxamide] | > 6.00 | ≥ 6.00 |
| O=C(/C=C/c1ccccc1NC(=O)c1ccccc1Oc1ccc(C(F)(F)F)nc1)NO [Example I-540, (E)-N-(2-(3-(hydroxyamino)-3-oxoprop-1-en-1-yl)phenyl)-2-((6-(trifluoromethyl)pyridin-3-yl)oxy)benzamide] | > 6.00 | ≥ 6.00 |
| CC(C)(C)OC(=O)N1CCCC12CCN(c1ccccc1/C=C/C(=O)NO)C2 (stereo not drawn) [Example I-541, tert-butyl (E)-7-(2-(3-(hydroxyamino)-3-oxoprop-1-en-1-yl)phenyl)-1,7-diazaspiro[4.4]nonane-1-carboxylate] | > 6.00 | ≥ 6.00 |
| CC(C)(C)OC(=O)N1CC2(CCCN2c2ccccc2/C=C/C(=O)NO)C1 [Example I-542, tert-butyl (E)-5-(2-(3-(hydroxyamino)-3-oxoprop-1-en-1-yl)phenyl)-2,5-diazaspiro[3.4]octane-2-carboxylate] | > 6.00 | ≥ 6.00 |
| CC(C)(C)OC(=O)N1CCCCC12CCN(c1ccccc1/C=C/C(=O)NO)C2 (stereo not drawn) [Example I-543, tert-butyl (E)-2-(2-(3-(hydroxyamino)-3-oxoprop-1-en-1-yl)phenyl)-2,6-diazaspiro[4.5]decane-6-carboxylate] | > 6.00 | ≥ 6.00 |
| O=C(/C=C/c1ccccc1NC(=O)c1nc(Oc2ccccc2)cs1)NO [Example I-544, N-{2-[(1E)-2-(hydroxycarbamoyl)eth-1-en-1-yl]phenyl}-4-phenoxy-1,3-thiazole-2-carboxamide] | > 6.00 | ≥ 6.00 |
| CC(=O)N1CCCC12CCN(c1ccccc1/C=C/C(=O)NO)C2 (stereo not drawn) [Example I-545] | > 6.00 | ≥ 6.00 |
| CC(=O)N1CC2(CCCN2c2ccccc2/C=C/C(=O)NO)C1 [Example I-547, (E)-3-(2-(2-acetyl-2,5-diazaspiro[3.4]octan-5-yl)phenyl)-N-hydroxyacrylamide] | > 6.00 | ≥ 6.00 |
| O=C(/C=C/c1cc(C(F)(F)F)ccc1NC(=O)c1ccccc1Oc1ccc(F)cc1)NO [Example I-556, 2-(4-fluorophenoxy)-N-{2-[(1E)-2-(hydroxycarbamoyl)eth-1-en-1-yl]-4-(trifluoromethyl)phenyl}benazmide] | > 6.00 | ≥ 6.00 |
| O=C(/C=C/c1cc(OC(F)(F)F)ccc1NC(=O)c1ccccc1Oc1ccc(F)cc1)NO [Example I-557, 2-(4-fluorophenoxy)-N-{2-[(1E)-2-(hydroxycarbamoyl)eth-1-en-1-yl]-4-(trifluoromethoxy)phenyl}benzamide] | > 6.00 | ≥ 6.00 |
| O=C(/C=C/c1ccccc1C(=O)N1CCCC1)NO [II-15, (E)-N-hydroxy-3-(2-(pyrrolidine-1-carbonyl)phenyl)acrylamide] | > 6.00 | ≥ 6.00 |
| O=C(/C=C/c1ccccc1C(=O)N1CCN(c2cnccn2)CC1)NO [II-22, (E)-N-hydroxy-3-(2-(4-(pyrazin-2-yl)piperazine-1-carbonyl)phenyl)acrylamide] | > 6.00 | ≥ 6.00 |
| O=C(/C=C/c1ccccc1C(=O)N1CCC[C@H](Cn2ccnc2)C1)NO [II-27, (R,E)-3-(2-(3-((1H-imidazol-1-yl)methyl)piperidine-1-carbonyl)phenyl)-N-hydroxyacrylamide] | > 6.00 | ≥ 6.00 |
| O=C(/C=C/c1ccccc1C(=O)N1CCC(F)(F)C1)NO [II-28, (E)-3-(2-(3,3-difluoropyrrolidine-1-carbonyl)phenyl)-N-hydroxyacrylamide] | > 6.00 | ≥ 6.00 |
| O=C(/C=C/c1ccccc1S(=O)(=O)C1CCN(C(=O)Cc2ccc(Cl)cc2)CC1)NO [II-29] | > 6.00 | ≥ 6.00 |
| COc1ccc(/C=C/C(=O)NO)c(NC(=O)c2ccccc2Oc2ccc(Cl)cc2F)c1 [II-37, 2-(4-chloro-2-fluorophenoxy)-N-{2-[(1E)-2-(hydroxycarbamoyl)eth-1-en-1-yl]-5-methoxyphenyl}benzamide] | > 6.00 | ≥ 6.00 |
